US20260207578A1, “COMPOUND BASED ON SULFUR/OXYGEN SUBSTITUTED GLUTARIMIDE-BASED ISOINDOLINONE SKELETON AND USE THEREOF” (Gluetacs Therapeutics (Shanghai) Co., LTD., priority 2022, published 2026)

Tests used:
Wee1 = target: T1, Wee1 (Homo sapiens, UniProt P30291+Q96SW2); experiment: Western-blot assay, substrate protein in hPBMCs; format: cell-based; conditions: hPBMC cells, 24 hours, tested at 50 nM and 500 nM, table does not say which
T1 construct: endogenous in cells; host or cells: human PBMCs (Milecell Biotechnologies)
Outline: (§1)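 Steps: treat hPBMCs 24 h; lyse on ice in RIPA with phosphatase inhibitors; quantify protein by BCA; denature at 95 °C and blot. Remaining protein (%) is the target/internal-control band ratio, normalised; degradation rate is its complement.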

CK1α = target: T2, CK1α (Homo sapiens, UniProt P48729+Q96SW2); experiment: Western-blot assay, substrate protein in hPBMCs; format: cell-based; conditions: hPBMC cells, 24 hours, tested at 50 nM and 500 nM, table does not say which
T2 construct: endogenous in cells; host or cells: human PBMCs (Milecell Biotechnologies)
Outline: as §1

IKZF2 = target: T3, IKZF2 (Homo sapiens, UniProt Q96SW2+Q9UKS7); experiment: Western-blot assay, substrate protein in hPBMCs; format: cell-based; conditions: hPBMC cells, 24 hours, tested at 50 nM and 500 nM, table does not say which
T3 construct: endogenous in cells; host or cells: human PBMCs (Milecell Biotechnologies)
Outline: as §1

GSPT1 = target: T4, GSPT1 (Homo sapiens, UniProt P15170+Q96SW2); experiment: Western-blot assay, substrate protein in hPBMCs; format: cell-based; conditions: hPBMC cells, 24 hours, tested at 50 nM and 500 nM, table does not say which
T4 construct: endogenous in cells; host or cells: human PBMCs (Milecell Biotechnologies)
Outline: as §1

IKZF3 = target: T5, IKZF3 (Homo sapiens, UniProt Q96SW2+Q9UKT9); experiment: Western-blot assay, substrate protein in hPBMCs; format: cell-based; conditions: hPBMC cells, 24 hours, tested at 50 nM and 500 nM, table does not say which
T5 construct: endogenous in cells; host or cells: human PBMCs (Milecell Biotechnologies)
Method: (§2) The effect of the compounds of the present disclosure on the expression of target proteins in cells was detected using conventional Western blot analysis.
(§3) Human peripheral blood mononuclear cells (hPBMCs) at a density of 1×10^6 cells/mL were thawed according to the PBMC Recovery Protocol (Milecell Biotechnologies Inc, Shanghai). The cells were then treated with the compounds of the present disclosure (including the compounds listed in Tables 1 and 2, and the Examples A1-A20 and 1-116 compounds) at concentrations of 50 nM and 500 nM.
(§4) Controls included a negative control (DMSO) and a positive control (the commercial immunomodulatory drug lenalidomide), both processed following the identical experimental protocol as the compounds of the present disclosure. After 24 hours of compounds treatment, cells were harvested and lysed in RIPA protein lysate containing phosphatase inhibitors on ice for 30-60 min, followed by centrifugation. The supernatant was aspirated as the extracted total cell protein. The protein concentration of the supernatant was determined using the conventional BCA (Bicinchoninic Acid) assay. The supernatant was then mixed with 4× SDS sample loading buffer, denatured at 95° C. for 5 minutes, and then subjected to SDS-PAGE electrophoresis on a polyacrylamide gel. Proteins were then transferred to a nitrocellulose (NC) membrane, blocked at room temperature for 1-2 h, and processed for antibody incubation and detection according to the manufacturer's instructions (Cell Signaling Technology).
(§5) Half-Maximal Degradation Concentration value (the drug concentration required for degrading proteins by 50%, abbreviated as DC50) reads method: comparing the grayscale values of Western blot bands from drug-treated samples with those from blank DMSO-treated controls, and identifying the drug concentration range at which the grayscale value is half that of the DMSO-treated control bands.
(§6) DC50 values can be calculated using ImageJ software to measure grayscale values of Western blot bands from drug-treated samples. The concentration-response curve is fitted to estimate the drug concentration corresponding to half the grayscale value.
(§7) Target protein remaining (%) refers to the percentage of target protein remaining in hPBMC cells after treatment with protein degrader compounds.
(§8) Calculation method for protein remaining (%): Use ImageJ software to measure grayscale values of Western blot bands from drug (protein degrader)-treated samples. The grayscale value of drug-treated bands is divided by that of internal control protein bands, and the resulting quotient is normalized to obtain the relative percentage of remaining target protein after protein degrader treatment.
(§9) Target protein degradation rate (%)=100%−target protein remaining (%).

[1] = target: T6, human Cereblon WT GST-tagged protein (Homo sapiens, UniProt Q96SW2); experiment: CRBN-binding affinity, HTRF (CEREBLON BINDING kit); conditions: displacement of Thalidomide-Re reagent, 3 hours at room temperature
T6 construct: purchased CISBIO 64BDCRBNPEH
Outline: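 HTRF competition format: compound, GST-tagged wild-type human Cereblon, Thalidomide-Re tracer and GST Eu antibody were combined in PROTAC binding buffer. Binding was derived from emission at 620 nm relative to blank and solvent control wells.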

IKZF1 = target: T7, IKZF1 (Homo sapiens, UniProt Q13422+Q96SW2); experiment: Western-blot assay, substrate protein in hPBMCs; format: cell-based; conditions: hPBMC cells, 24 hours, tested at 50 nM and 500 nM, table does not say which
T7 construct: endogenous in cells; host or cells: human PBMCs (Milecell Biotechnologies)
Method: as §2, §3, §4, §5, §6, §7, §8, §9

T3 sequence (Q9UKS7 whole entry): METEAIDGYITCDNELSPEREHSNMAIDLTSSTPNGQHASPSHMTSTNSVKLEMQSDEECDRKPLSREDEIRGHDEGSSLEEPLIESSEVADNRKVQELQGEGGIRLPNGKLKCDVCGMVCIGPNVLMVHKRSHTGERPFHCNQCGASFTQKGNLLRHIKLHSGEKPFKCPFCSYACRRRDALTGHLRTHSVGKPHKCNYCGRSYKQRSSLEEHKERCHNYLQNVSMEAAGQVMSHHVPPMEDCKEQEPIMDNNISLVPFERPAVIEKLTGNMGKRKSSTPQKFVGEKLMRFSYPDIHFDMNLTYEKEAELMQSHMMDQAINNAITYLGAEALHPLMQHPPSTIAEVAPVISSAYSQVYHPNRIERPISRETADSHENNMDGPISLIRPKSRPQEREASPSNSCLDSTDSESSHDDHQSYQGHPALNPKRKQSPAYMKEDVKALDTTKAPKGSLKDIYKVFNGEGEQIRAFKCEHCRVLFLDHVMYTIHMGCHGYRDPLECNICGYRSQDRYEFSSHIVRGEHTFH
T3 sequence (Q96SW2 whole entry): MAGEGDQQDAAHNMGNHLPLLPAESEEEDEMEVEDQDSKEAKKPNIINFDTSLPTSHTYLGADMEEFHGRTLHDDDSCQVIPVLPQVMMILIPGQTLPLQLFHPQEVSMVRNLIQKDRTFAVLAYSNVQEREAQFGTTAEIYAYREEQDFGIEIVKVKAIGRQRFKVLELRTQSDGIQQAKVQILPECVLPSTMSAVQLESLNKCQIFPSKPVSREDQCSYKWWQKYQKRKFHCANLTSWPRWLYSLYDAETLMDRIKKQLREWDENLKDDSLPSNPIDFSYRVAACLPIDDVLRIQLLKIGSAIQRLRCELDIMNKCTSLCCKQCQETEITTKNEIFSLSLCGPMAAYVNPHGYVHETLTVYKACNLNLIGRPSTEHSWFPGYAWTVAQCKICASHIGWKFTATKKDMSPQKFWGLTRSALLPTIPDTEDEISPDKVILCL
T3 sequence (Q16531 whole entry partner): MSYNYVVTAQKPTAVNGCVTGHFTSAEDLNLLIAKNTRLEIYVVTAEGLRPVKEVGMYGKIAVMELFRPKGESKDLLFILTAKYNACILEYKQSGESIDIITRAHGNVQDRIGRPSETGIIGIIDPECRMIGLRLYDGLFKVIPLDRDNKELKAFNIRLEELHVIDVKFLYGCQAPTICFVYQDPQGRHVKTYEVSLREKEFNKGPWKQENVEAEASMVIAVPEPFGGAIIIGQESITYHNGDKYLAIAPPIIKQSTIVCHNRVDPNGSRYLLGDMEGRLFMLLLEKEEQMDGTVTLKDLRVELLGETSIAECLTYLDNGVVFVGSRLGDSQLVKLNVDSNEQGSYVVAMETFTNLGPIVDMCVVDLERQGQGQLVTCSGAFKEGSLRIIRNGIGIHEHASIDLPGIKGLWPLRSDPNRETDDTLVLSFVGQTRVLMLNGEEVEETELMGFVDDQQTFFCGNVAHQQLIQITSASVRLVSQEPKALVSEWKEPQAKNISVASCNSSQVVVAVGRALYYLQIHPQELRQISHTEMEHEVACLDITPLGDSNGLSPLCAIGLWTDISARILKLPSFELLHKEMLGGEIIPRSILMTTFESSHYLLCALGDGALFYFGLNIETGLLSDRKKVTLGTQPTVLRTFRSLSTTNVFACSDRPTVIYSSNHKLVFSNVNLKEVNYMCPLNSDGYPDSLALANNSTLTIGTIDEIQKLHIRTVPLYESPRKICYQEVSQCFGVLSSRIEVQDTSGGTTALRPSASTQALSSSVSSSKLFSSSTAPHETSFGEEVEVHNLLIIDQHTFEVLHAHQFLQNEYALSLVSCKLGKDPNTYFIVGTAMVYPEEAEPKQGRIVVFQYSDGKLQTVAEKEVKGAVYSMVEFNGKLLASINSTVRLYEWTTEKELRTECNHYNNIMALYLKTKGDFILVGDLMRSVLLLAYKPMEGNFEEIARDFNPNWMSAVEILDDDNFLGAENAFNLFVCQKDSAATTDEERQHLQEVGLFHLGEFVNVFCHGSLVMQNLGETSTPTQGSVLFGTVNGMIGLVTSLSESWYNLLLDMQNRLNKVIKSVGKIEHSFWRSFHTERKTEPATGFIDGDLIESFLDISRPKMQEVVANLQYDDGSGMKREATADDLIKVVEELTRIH
T7 sequence (Q13422 whole entry): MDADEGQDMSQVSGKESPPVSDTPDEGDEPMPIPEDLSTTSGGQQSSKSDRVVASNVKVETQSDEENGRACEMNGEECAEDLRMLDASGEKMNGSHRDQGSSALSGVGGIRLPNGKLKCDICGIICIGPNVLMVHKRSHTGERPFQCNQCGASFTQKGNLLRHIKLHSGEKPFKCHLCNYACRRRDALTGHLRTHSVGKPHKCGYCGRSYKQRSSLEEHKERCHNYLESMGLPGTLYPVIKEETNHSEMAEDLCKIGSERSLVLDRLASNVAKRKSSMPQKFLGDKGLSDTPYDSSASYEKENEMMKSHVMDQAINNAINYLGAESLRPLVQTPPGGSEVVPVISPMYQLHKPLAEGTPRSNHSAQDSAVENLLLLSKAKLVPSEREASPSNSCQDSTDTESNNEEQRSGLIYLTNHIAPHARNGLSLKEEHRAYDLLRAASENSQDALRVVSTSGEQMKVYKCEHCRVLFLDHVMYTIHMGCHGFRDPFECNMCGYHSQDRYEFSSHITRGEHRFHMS
T7 sequence (Q96SW2 whole entry): as the sequence (Q96SW2 whole entry) above
T7 sequence (Q16531 whole entry partner): as the sequence (Q16531 whole entry partner) above
T6 sequence (Q96SW2 whole entry): as the sequence (Q96SW2 whole entry) above
T2 sequence (P48729 whole entry): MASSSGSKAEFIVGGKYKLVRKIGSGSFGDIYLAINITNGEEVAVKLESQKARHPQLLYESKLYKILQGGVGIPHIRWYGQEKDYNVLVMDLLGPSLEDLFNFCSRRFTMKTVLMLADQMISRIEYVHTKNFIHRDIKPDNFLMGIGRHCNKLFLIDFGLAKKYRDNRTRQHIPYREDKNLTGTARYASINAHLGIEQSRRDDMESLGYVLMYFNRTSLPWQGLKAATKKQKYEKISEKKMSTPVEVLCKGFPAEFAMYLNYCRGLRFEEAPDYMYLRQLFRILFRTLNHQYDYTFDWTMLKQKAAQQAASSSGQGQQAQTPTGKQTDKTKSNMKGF
T2 sequence (Q96SW2 whole entry): as the sequence (Q96SW2 whole entry) above
T2 sequence (Q16531 whole entry partner): as the sequence (Q16531 whole entry partner) above
T4 sequence (P15170 whole entry): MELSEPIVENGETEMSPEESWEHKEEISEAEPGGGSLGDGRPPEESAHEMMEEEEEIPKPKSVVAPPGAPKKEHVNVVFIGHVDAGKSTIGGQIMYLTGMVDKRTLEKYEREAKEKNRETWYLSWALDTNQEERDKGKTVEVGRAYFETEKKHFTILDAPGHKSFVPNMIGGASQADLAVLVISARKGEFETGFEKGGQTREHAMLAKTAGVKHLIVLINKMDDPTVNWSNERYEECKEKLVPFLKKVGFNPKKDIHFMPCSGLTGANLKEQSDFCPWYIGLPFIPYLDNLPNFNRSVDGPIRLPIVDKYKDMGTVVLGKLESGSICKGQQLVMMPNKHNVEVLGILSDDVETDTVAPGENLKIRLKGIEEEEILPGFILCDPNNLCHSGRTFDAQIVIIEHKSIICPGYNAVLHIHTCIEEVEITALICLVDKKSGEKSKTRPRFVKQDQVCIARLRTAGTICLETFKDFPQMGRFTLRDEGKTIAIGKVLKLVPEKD
T4 sequence (Q96SW2 whole entry): as the sequence (Q96SW2 whole entry) above
T4 sequence (Q16531 whole entry partner): as the sequence (Q16531 whole entry partner) above
T5 sequence (Q9UKT9 whole entry): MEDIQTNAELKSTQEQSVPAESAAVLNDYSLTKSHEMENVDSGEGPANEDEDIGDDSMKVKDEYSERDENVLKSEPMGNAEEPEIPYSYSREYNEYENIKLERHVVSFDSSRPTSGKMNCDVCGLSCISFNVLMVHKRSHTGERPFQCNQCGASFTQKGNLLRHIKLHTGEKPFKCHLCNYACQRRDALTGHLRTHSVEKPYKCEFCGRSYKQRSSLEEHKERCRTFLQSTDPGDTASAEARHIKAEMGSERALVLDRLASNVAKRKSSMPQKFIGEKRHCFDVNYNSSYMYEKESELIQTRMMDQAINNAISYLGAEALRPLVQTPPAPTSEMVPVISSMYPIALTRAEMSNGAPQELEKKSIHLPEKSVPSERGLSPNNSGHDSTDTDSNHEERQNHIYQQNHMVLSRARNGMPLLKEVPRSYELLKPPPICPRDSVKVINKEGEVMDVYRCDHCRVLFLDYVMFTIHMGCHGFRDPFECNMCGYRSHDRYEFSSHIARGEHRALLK
T5 sequence (Q96SW2 whole entry): as the sequence (Q96SW2 whole entry) above
T5 sequence (Q16531 whole entry partner): as the sequence (Q16531 whole entry partner) above

| SMILES | substrate protein remaining % (Wee1) | substrate protein remaining % (CK1α) | substrate protein remaining % (IKZF2) | substrate protein remaining % (GSPT1) | substrate protein remaining % (IKZF3) | IC50 [1] | substrate protein remaining % (IKZF1) |
| --- | --- | --- | --- | --- | --- | --- | --- |
| CC1(C)CCC(CN2CC(Oc3ccc4c(c3)C(=O)N(C3CCC(=O)NC3=O)C4)C2)=C(c2ccc(Cl)cc2)C1 (centres unmarked) [GT-06872, 3-(6-((1-((4′-chloro-5,5-dimethyl-3,4,5,6-tetrahydro-[1,1′-biphenyl]-2-yl)methyl)azetidin-3-yl)oxy)-1-oxoisoindolin-2-yl)piperidine-2,6-dione] | A (0%≤ substrate protein remaining % ≤80%) | A (0%≤ substrate protein remaining % ≤80%) | A (0%≤ substrate protein remaining % ≤80%) | A (0%≤ substrate protein remaining % ≤80%) | A (0%≤ substrate protein remaining % ≤80%) | 1000 to 1900 nM |  |
| O=C1CCC(N2Cc3cc(SC4CCN(C(c5ccccc5)c5ccccc5)CC4)ccc3C2=O)C(=O)N1 (centres unmarked) [GT-06184, 3-(5-((1-benzhydrylpiperidin-4-yl)thio)-1-oxoisoindolin-2-yl)piperidine-2,6-dione] |  |  |  | A (0%≤ substrate protein remaining % ≤80%) | A (0%≤ substrate protein remaining % ≤80%) | 500 to 1000 nM |  |
| O=C1CCC(N2Cc3cc(OC4CN(CC5=C(c6ccc(F)cc6)CCOC5)C4)ccc3C2=O)C(=O)N1 (centres unmarked) [GT-06560, 3-(5-((1-((4-(4-fluorophenyl)-5,6-dihydro-2H-pyran-3-yl)methyl)azetidin-3-yl)oxy)-1-oxoisoindolin-2-yl)piperidine-2,6-dione] | A (0%≤ substrate protein remaining % ≤80%) |  |  |  | A (0%≤ substrate protein remaining % ≤80%) | 500 to 1000 nM |  |
| CC1(C)CCC(C(=O)N2C[C@H]3CC(Sc4ccc5c(c4)CN(C4CCC(=O)NC4=O)C5=O)C[C@@H]3C2)=C(c2ccc(Cl)cc2)C1 (stereo partly drawn) [GT-07022, 3-(5-(((3aS,6aS)-2-(4′-chloro-5,5-dimethyl-3,4,5,6-tetrahydro-[1,1′-biphenyl]-2-carbonyl)octahydro-cyclopenta[c]pyrrol-5-yl)thio)-1-oxoisoindolin-2-yl)piperidine-2,6-dione] |  | A (0%≤ substrate protein remaining % ≤80%) |  |  | A (0%≤ substrate protein remaining % ≤80%) | 500 to 1000 nM |  |
| O=C1CCC(N2Cc3cc(SC4CCN(C(=O)c5ccccc5-c5ccc(Cl)cc5)C4)ccc3C2=O)C(=O)N1 (centres unmarked) [GT-06181, 3-(5-((1-(4′-chloro-[1,1′-biphenyl]-2-carbonyl)pyrrolidin-3-yl)thio)-1-oxoisoindolin-2-yl)piperidine-2,6-dione] | A (0%≤ substrate protein remaining % ≤80%) |  |  | A (0%≤ substrate protein remaining % ≤80%) | A (0%≤ substrate protein remaining % ≤80%) | < 500 nM |  |
| O=C1CCC(N2Cc3cc(OC4CN(C(c5ccccc5)c5ccccc5)C4)ccc3C2=O)C(=O)N1 (centres unmarked) [GT-06185, 3-(5-((1-benzhydrylazetidin-3-yl)oxy)-1-oxoisoindolin-2-yl)piperidine-2,6-dione] |  |  | A (0%≤ substrate protein remaining % ≤80%) | A (0%≤ substrate protein remaining % ≤80%) | A (0%≤ substrate protein remaining % ≤80%) | < 500 nM |  |
| COc1ccc(C(c2ccc(OC)cc2)N2CC(Oc3ccc4c(c3)CN(C3CCC(=O)NC3=O)C4=O)C2)cc1 (centres unmarked) [GT-06959, 3-(5-((1-(bis(4-methoxyphenyl)methyl)azetidin-3-yl)oxy)-1-oxoisoindolin-2-yl)piperidine-2,6-dione] | A (0%≤ substrate protein remaining % ≤80%) | A (0%≤ substrate protein remaining % ≤80%) |  | A (0%≤ substrate protein remaining % ≤80%) | A (0%≤ substrate protein remaining % ≤80%) | < 500 nM |  |
| CC1(C)CCC(CN2CCCC(Oc3ccc4c(c3)CN(C3CCC(=O)NC3=O)C4=O)CC2)=C(c2ccc(Cl)cc2)C1 (centres unmarked) [GT-06929, 3-(5-((1-((4′-chloro-5,5-dimethyl-3,4,5,6-tetrahydro-[1,1′-biphenyl]-2-yl)methyl)azepan-4-yl)oxy)-1-oxoisoindolin-2-yl)piperidine-2,6-dione] | A (0%≤ substrate protein remaining % ≤80%) |  | A (0%≤ substrate protein remaining % ≤80%) |  | A (0%≤ substrate protein remaining % ≤80%) | 500 to 1000 nM |  |
| O=C1CCC(N2Cc3cc(SC4CCNCC4)ccc3C2=O)C(=O)N1 (centres unmarked) [GT-03616, 3-(1-oxo-5-(piperidin-4-ylthio)isoindolin-2-yl)piperidine-2,6-dione] |  | A (0%≤ substrate protein remaining % ≤80%) | A (0%≤ substrate protein remaining % ≤80%) | A (0%≤ substrate protein remaining % ≤80%) |  | 1000 to 1900 nM | A (0%≤ substrate protein remaining % ≤80%) |
| CC1(C)CCC(C(=O)N2C[C@H]3CC(Sc4ccc5c(c4)CN(C4CCC(=O)NC4=O)C5=O)C[C@H]3C2)=C(c2ccc(Cl)cc2)C1 (stereo partly drawn) [GT-07015, 3-(5-(((3aR,6aS)-2-(4′-chloro-5,5-dimethyl-3,4,5,6-tetrahydro-[1,1′-biphenyl]-2-carbonyl)octahydro-cyclopenta[c]pyrrol-5-yl)thio)-1-oxoisoindolin-2-yl)piperidine-2,6-dione] |  |  | A (0%≤ substrate protein remaining % ≤80%) |  | A (0%≤ substrate protein remaining % ≤80%) | 500 to 1000 nM |  |
| O=C1CCC(N2Cc3cc(SC4CCC5(CC4)CCN(C(c4ccccc4)c4ccccc4)CC5)ccc3C2=O)C(=O)N1 (centres unmarked) [GT-06958, 3-(5-((3-benzhydryl-3-azaspiro[5.5]undecan-9-yl)thio)-1-oxoisoindolin-2-yl)piperidine-2,6-dione] | A (0%≤ substrate protein remaining % ≤80%) | A (0%≤ substrate protein remaining % ≤80%) |  | A (0%≤ substrate protein remaining % ≤80%) | A (0%≤ substrate protein remaining % ≤80%) | < 500 nM |  |
| O=C1CCC(N2Cc3cc(SC4CN(Cc5ccc(-c6ccncc6)nc5)C4)ccc3C2=O)C(=O)N1 (centres unmarked) [GT-06808, 3-(5-((1-([2,4′-bipyridin]-5-ylmethyl)azetidin-3-yl)thio)-1-oxoisoindolin-2-yl)piperidine-2,6-dione] | A (0%≤ substrate protein remaining % ≤80%) | A (0%≤ substrate protein remaining % ≤80%) | A (0%≤ substrate protein remaining % ≤80%) |  |  | 500 to 1000 nM | A (0%≤ substrate protein remaining % ≤80%) |
| O=C1CCC(N2Cc3cc(SC4CNC4)ccc3C2=O)C(=O)N1 (centres unmarked) [GT-03613, 3-(5-(azetidin-3-ylthio)-1-oxoisoindolin-2-yl)piperidine-2,6-dione] | A (0%≤ substrate protein remaining % ≤80%) | A (0%≤ substrate protein remaining % ≤80%) | A (0%≤ substrate protein remaining % ≤80%) | A (0%≤ substrate protein remaining % ≤80%) |  | < 500 nM | A (0%≤ substrate protein remaining % ≤80%) |
